This is an account of results in publication PMC6445193 (Journal of Enzyme Inhibition and Medicinal Chemistry, 2017).

The subject of one data set is SAHH. Also on record: method as in PMID 24813734. The conditions noted are these: data from literature; cited from earlier work.
In the next data set the test system is brain homocysteine. The arrangement: method as in PMID 24813734. The conditions noted are these: reported by Converso; cited from earlier work.
Data set [1] has as its target T1, human S-adenosyl-homocysteine hydrolase (rSAHH) (Homo sapiens, UniProt P23526). The data set can be described thus: SAHH inhibition, IC50 determination with recombinant SAHH (hydrolysis of SAH, Hcy determined with DTNB). In kind it is biochemical.
Experimental: The activity of SAHH was expressed in units (U), which were defined as 1 μmol of SAH catalyzed by the enzyme per minute. Specific enzymatic activities (aspec) were calculated through the division of the enzymatic activities by the total protein amount used per assay and are expressed in U/mg. […] All of the values shown correspond to the mean values of at least three independent experiments, each of which was conducted in duplicate and all of the calculations were performed using Origin version 8.5 software and GraphPad Prism 5.
Stock solution of compounds (1 mM) for enzyme inhibition was prepared in DMSO. Both enzymes and substrates are diluted in Tris-HCl (pH = 6.5) to specified concentration when used for IC50 determination.
SAH is hydrolysed by SAHH into Hcy and adenosine. And Hcy can be directly determined using Ellman reagent (DTNB)[17].
On the set-up of data set [2]: method as in PMID 24813734. The following applies: long term exposure; cited from earlier work.
The target of data set [3] is T1, human S-adenosyl-homocysteine hydrolase (rSAHH). The data set can be described thus: Enzyme kinetics of SAHH-catalyzed hydrolysis of SAH. In kind it is biochemical.
Experimental: The activity of SAHH was expressed in units (U), which were defined as 1 μmol of SAH catalyzed by the enzyme per minute. Specific enzymatic activities (aspec) were calculated through the division of the enzymatic activities by the total protein amount used per assay and are expressed in U/mg. SAHH enzyme reacted with the SAH at different temperature and different pH, in order to identify its optimal reaction conditions. All of the values shown correspond to the mean values of at least three independent experiments, each of which was conducted in duplicate and all of the calculations were performed using Origin version 8.5 software and GraphPad Prism 5.
The enzyme kinetic parameters (Km and Kcat) were calculated by least-squares fitting of the activity data at various substrate concentrations to the Michaelis–Menten equation with Origin version 8.5 software (Microcal Software, Northampton, MA).
Where [4] appears, read: recombinant human SAHH, Tris-HCl pH 6.5, read-out: SAHH IC50.

Like-named read-outs stand apart in the source and are kept apart here.

T1 sequence (P23526 whole entry): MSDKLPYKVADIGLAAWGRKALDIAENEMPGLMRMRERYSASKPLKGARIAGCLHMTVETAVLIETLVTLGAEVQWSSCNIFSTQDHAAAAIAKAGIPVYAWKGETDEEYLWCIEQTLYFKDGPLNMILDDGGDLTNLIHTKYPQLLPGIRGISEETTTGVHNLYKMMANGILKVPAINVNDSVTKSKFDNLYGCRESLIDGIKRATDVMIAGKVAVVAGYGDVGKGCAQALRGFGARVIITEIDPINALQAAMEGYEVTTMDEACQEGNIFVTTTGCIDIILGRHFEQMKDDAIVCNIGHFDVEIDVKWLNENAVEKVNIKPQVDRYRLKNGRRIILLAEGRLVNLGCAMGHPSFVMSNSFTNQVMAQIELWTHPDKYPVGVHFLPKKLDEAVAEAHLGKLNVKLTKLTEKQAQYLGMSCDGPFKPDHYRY

A word on the IC50: it is the concentration that inhibits the measured activity by half. In the case of `Nc1ncc(F)c2c1ncn2[C@@H]1CC[C@@H](O)[C@H]1O` [20 ^*], the 50% inhibitory concentration (IC50) in the data set on SAHH was 40 nM. Moreover, the “effect on brain homocysteine” value with brain homocysteine was “reduce brain homocysteine in a dose-dependent manner”.

As for `On1nnc2ccccc21` [Compound 1], the IC50 in data set [1] worked out at 1240 nM.

For `COc1ccc(C=O)cc1` [Compound 2], in data set [1] (setting [4]), the IC50 came out at 2130 nM. As for `Fc1ccc(CBr)c(F)c1` [Compound 3], the IC50 in data set [1] was found to be 913 nM. Regarding `COC(=O)/C=C/c1ccc(CBr)cc1` [Compound 4], the half-maximal inhibitory concentration (IC50) in data set [1] (setting [4]) came to 814 nM. For `COc1cc(C=O)ccc1O` [Compound 5], in data set [1] (setting [4]), the IC50 came to 1100 nM. As for `O=C(OO)c1ccc(Cl)cc1` [Compound 6], in data set [1], the concentration for half-maximal inhibition (IC50) came to 565 nM.

For `Oc1ccc(Cl)c(O)c1` [Compound 7], the concentration for half-maximal inhibition (IC50) in data set [1] was found to be 1110 nM. Turning to `O=C(O)c1ccc(F)cc1` [Compound 8], the IC50 in data set [1] (setting [4]) is 679 nM.

For `COc1ccc(N)cc1` [Compound 9], the half-maximal inhibitory concentration (IC50) in data set [1] (setting [4]) was 899 nM.

On to `CCOC(=O)c1ccc(N)cc1` [Compound 10], for which, in data set [1] (setting [4]), the IC50 is 1400 nM. Turning to `COc1ccc(/C=C/C(=O)O)cc1` [Compound 11], the IC50 in data set [1] (setting [4]) was determined as 986 nM. Same read-out and setting: under `O=C(O)/C=C/c1ccc(Cl)cc1` [Compound 12] stands 571 nM. For the molecule `COc1cc(C=CCO)ccc1O` [Compound 13, 4-(3-hydroxyprop-1-en-1-yl)-2-methoxyphenol], the 50% inhibitory concentration (IC50) in data set [1] (setting [4]) is 34 nM. `Nc1ncnc2c1ncn2[C@@H]1C=C(CO)[C@@H](O)[C@H]1O` [NepA, Neplanocin A]: the IC50 in the data set with SAHH is 1.5 nM. Also, the cytotoxicity entry in data set [2] is listed as “cytotoxic upon long term exposure”. For orientation: Km means the concentration of substrate that gives half-maximal velocity. A word on the Vmax: it is the rate approached at saturating substrate. Take `Nc1ncnc2c1ncn2[C@@H]1O[C@H](CSCC[C@H](N)C(=O)O)[C@@H](O)[C@H]1O` [SAH, S-adenosylhomocysteine]: the Michaelis constant (Km) in data set [3] (read-out: apparent Km of the hydrolytic reaction, substrate SAH) is roughly 21.8 µM. For the same molecule, the Vmax in data set [3] (substrate SAH) stood at 22.9 µM/min.
